Source: US12319699B2, “L-proline sulfonamide derivatives comprising pyrazolo[4,3-e]tetrazolo[4,5-b][1,2,4]triazine system, method of manufacturing thereof, uses thereof and pharmaceutical composition comprising the same” (UNIWERSYTET MEDYCZNY W BIALYMSTOKU, priority 2018, dated 2025)

Experiments:
Type in all cases: in vivo
[1] = Body weight of xenograft mice after two-week therapy; conditions: mice with DLD-1 and HT-29 xenografts, 50 μg/kg s.c. once a day
Experimental: (§1) The second stage of the study was carried out with the use of animals (Cby.Cg-Foxn1nu/J mice, females) (Jackson Laboratory, USA). […] All procedures were carried out in accordance with the guidelines for experiments in animals and a protocol approved by the Local Ethics Committee (Resolution No. August 2018).
(§2) After the first week, when tumours reached about 5 mm in diameter, i.e. the size which according to literature data is suitable for carrying out further steps of examination, the mice began receiving subcutaneous injections of the sulfonamide derivative of 7-methyl-5-phenyl-pyrazolo[4,3-e]tetrazolo[4,5-b][1,2,4]triazine comprising 4-hydroxy-L-proline methyl ester in the sulfonamide group according to the invention (the compound of Formula 3) in a dose of 50 μg/kg once a day for two weeks. The moment of administration of the compound was marked as time 0. […] Before the administration of the sulfonamide derivative of 7-methyl-5-phenyl-pyrazolo[4,3-e]tetrazolo[4,5-b][1,2,4]triazine comprising 4-hydroxy-L-proline methyl ester in the sulfonamide group according to the invention (time 0), after the first week (time 1) and the second week (time 2) of administering this compound, the sizes of tumours were measured in two dimensions by means of a digital calliper. […]
Additionally, the effect of the compound of Formula 3 on the body weight of the animals after the two-week therapy was assessed.

[2] = Haematological analysis of xenograft mice after two-week therapy; conditions: mice with DLD-1 and HT-29 xenografts, 50 μg/kg s.c. once a day
Experimental: as §1, §2

[3] = tested on: DLD-1 xenografts; assay: Tumour growth in mice with xenografts; conditions: mice with DLD-1 xenografts
Experimental: as §1
(§3) The studies in in vivo conditions were carried out in the Centre of Experimental Medicine of the Medical University of Bialystok. It is a modern institution which ensures a high standard of SPF barrier animal facilities. Animals are housed in a room with […], in the optimal temperature of 22° C., 55% air humidity, with fifteen air changes per hour (with the speed not exceeding 0.3 m/s) and 12:12 light-dark cycle. The animals were under 24-hour monitoring and period controls of both the animals (in accordance with FELASA recommendations) and the rooms in which they were housed were carried out. The Centre for Experimental Medicine has a Good Laboratory Practice (GLP) certificate.
(§4) During the initial studies the mice were divided into two groups.
(§5) After the first week, when tumours reached about 5 mm in diameter, i.e. the size which according to literature data is suitable for carrying out further steps of examination, the mice began receiving subcutaneous injections of the sulfonamide derivative of 7-methyl-5-phenyl-pyrazolo[4,3-e]tetrazolo[4,5-b][1,2,4]triazine comprising 4-hydroxy-L-proline methyl ester in the sulfonamide group according to the invention (the compound of Formula 3) in a dose of 50 μg/kg once a day for two weeks. The moment of administration of the compound was marked as time 0. The control group was constituted by animals that received subcutaneously 50 μl of 10% DMSO in PBS (the solvent for the compound of Formula 3). Before the administration of the sulfonamide derivative of 7-methyl-5-phenyl-pyrazolo[4,3-e]tetrazolo[4,5-b][1,2,4]triazine comprising 4-hydroxy-L-proline methyl ester in the sulfonamide group according to the invention (time 0), after the first week (time 1) and the second week (time 2) of administering this compound, the sizes of tumours were measured in two dimensions by means of a digital calliper. The volume of tumours was expressed in mm3 in accordance with the calculations that were described by Feldman et al. (Feldman J P. Goldwasser R. Mark S. Schwartz J. Orion I. JAQM. 2009.4.455-462).

[4] = tested on: HT-29 xenografts; assay: Tumour growth in mice with xenografts; conditions: mice with HT-29 xenografts
Experimental: as §1, §3, §4, §5

[5] = 50 μg/kg s.c. once a day for two weeks, p<0.05
[6] = 50 μg/kg s.c. once a day, after the second week, p<0.001

SMILES: COC(=O)C1CC(O)CN1S(=O)(=O)c1ccc(-n2nc(C)c3nc4nnnn4nc32)cc1 (stereo not drawn) [Compound of Formula 3, Methyl 4-hydroxy-1-[4-(7-methyl-5H-pyrazolo[4,3-e]tetrazolo[4,5-b][1,2,4]triazyn-5-yl)phenylsulfonyl]pyrrolidine-2-carboxylate]
- effect on body weight of the animals vs control [1]: No significant differences
- haematological parameters (WBC, RBC, PLT, HCT, HGB, MCV, MCH, MCHC) [2]: did not reveal any statistically significant changes
- tumour weight post mortem vs control [3, 5]: Statistically significant reduction in tumour weight
- inhibition of tumour growth (tumour volume) vs control [3, 6]: statistically significant inhibition of tumour growth
- tumour weight post mortem vs control [4, 5]: Statistically significant reduction in tumour weight
- inhibition of tumour growth (tumour volume) vs control [4, 6]: statistically significant inhibition of tumour growth
